In US12264156B2, “Compounds and pharmaceutical compositions thereof for the treatment of diseases” (GALAPAGOS NV, priority 2018, dated 2025):
pIC50: −log10 of the molar value.

How the values were obtained:
Assay type in all cases: biochemical
Conditions in all cases: ADP-Glo SIK kinase assay
SIK1 = target: T1, SIK1 (Homo sapiens, UniProt P57059); test: ADP-Glo kinase assay, SIK1
T1 construct: purchased Carna Biosciences 02-131
Description: (§1) The ADP-Glo™ kinase assay is a luminescent technology assay which measures the ADP formed from a kinase reaction. […] In a second step the kinase reactions are terminated and all the remaining ATP is depleted. In a final step the ADP is converted into ATP and this newly synthesized ATP is measured by using a luciferase/luciferin reaction. The generated light is measured using an Envision plate reader, wherein the luminescent signal obtained positively correlates with the kinase activity.
(§2) 1% DMSO and 10 μM staurosporine final concentrations are used as negative and positive controls.
(§3) 2 μL enzyme-substrate mixture is added to the assay plates.
(§4) The reaction is started by adding 2 μL diluted ATP on the assay plates. Plates are centrifuged for a few seconds at 1000 rpm and gently shaken for 2 min followed by an incubation at RT for 120 min.
(§5) The reactions are stopped and the unconsumed ATP is depleted by adding 5 μL ADP-Glo Reagent (Promega, Cat #V912B) to the reaction. The plates are centrifuged for a few seconds at 1000 rpm and incubated at RT for 40 min (ATP depletion).
(§6) The ADP is converted to ATP and luciferase and luciferin is introduced to detect ATP by adding 10 μL Kinase Detection Reagent (Promega, Cat #V913B+V914B) to the reaction. The plates are centrifuged for a few seconds at 1000 rpm and incubated at RT for 30 min (ADP detection).
(§7) Luminescence is measured on an Envision plate reader (PerkinElmer Inc.).

SIK2 = target: T2, SIK2 (Homo sapiens, UniProt Q9H0K1); test: ADP-Glo kinase assay, SIK2
T2 construct: purchased ThermoFisher Scientific PV4792
Description: as §1, §2, §3, §4, §5, §6, §7

SIK3 = target: T3, SIK3 (Homo sapiens, UniProt Q9Y2K2); test: ADP-Glo kinase assay, SIK3
T3 construct: purchased SignalChem S12-11G-100
Description: as §1, §2, §3, §4, §5, §6, §7

T1 sequence (P57059 whole entry): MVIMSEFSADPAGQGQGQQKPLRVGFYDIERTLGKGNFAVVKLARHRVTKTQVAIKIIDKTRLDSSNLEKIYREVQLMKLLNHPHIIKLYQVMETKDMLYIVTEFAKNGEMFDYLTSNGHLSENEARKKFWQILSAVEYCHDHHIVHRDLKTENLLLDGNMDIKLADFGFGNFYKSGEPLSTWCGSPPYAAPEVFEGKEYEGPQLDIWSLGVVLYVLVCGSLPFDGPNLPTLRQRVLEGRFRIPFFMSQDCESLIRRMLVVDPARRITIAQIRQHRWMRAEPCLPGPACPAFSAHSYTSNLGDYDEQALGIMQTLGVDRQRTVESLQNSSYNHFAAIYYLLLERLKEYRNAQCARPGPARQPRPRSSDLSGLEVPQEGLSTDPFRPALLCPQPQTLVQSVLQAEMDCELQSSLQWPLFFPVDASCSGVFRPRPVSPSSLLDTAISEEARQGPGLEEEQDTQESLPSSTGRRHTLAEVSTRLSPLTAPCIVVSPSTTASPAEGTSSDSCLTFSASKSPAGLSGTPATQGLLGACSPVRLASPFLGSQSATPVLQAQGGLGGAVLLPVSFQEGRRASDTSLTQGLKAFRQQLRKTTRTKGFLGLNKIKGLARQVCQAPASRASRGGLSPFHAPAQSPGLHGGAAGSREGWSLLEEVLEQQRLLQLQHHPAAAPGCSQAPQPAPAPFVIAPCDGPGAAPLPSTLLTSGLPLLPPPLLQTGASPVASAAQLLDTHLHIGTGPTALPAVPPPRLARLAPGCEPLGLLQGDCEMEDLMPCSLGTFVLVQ
T3 sequence (Q9Y2K2 whole entry): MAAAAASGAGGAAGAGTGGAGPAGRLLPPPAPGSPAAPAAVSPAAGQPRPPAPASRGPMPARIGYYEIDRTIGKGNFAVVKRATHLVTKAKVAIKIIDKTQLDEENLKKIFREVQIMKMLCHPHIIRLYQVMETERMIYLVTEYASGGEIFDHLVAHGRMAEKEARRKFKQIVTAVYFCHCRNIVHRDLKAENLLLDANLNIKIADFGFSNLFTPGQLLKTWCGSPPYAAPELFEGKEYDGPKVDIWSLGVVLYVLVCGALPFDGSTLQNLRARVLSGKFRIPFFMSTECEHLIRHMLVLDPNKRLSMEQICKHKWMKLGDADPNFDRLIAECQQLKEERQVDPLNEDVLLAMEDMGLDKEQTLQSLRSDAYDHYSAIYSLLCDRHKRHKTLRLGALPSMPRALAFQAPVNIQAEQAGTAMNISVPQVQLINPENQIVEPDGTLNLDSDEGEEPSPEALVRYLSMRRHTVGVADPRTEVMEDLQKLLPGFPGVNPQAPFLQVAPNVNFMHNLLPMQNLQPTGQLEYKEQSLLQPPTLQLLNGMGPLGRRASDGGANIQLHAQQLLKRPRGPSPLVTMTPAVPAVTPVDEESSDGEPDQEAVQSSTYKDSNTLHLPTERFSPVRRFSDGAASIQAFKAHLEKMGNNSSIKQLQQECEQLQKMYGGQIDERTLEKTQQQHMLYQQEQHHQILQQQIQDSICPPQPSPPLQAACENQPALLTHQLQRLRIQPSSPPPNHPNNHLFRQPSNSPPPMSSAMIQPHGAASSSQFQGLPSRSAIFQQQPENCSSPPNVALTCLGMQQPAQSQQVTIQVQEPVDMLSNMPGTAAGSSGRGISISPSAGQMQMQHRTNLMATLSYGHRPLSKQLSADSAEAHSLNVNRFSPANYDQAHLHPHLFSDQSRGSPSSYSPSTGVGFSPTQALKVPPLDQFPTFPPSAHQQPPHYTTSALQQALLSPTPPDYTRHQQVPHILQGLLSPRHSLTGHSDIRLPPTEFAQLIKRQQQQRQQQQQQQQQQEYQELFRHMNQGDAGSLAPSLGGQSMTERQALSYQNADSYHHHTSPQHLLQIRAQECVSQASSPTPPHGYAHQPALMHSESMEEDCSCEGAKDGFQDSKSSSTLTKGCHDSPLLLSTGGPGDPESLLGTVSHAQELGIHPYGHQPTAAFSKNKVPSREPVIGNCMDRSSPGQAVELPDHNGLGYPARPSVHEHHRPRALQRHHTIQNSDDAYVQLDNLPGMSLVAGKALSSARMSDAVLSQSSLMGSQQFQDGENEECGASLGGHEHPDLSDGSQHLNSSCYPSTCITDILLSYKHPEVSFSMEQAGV
T2 sequence (Q9H0K1 whole entry): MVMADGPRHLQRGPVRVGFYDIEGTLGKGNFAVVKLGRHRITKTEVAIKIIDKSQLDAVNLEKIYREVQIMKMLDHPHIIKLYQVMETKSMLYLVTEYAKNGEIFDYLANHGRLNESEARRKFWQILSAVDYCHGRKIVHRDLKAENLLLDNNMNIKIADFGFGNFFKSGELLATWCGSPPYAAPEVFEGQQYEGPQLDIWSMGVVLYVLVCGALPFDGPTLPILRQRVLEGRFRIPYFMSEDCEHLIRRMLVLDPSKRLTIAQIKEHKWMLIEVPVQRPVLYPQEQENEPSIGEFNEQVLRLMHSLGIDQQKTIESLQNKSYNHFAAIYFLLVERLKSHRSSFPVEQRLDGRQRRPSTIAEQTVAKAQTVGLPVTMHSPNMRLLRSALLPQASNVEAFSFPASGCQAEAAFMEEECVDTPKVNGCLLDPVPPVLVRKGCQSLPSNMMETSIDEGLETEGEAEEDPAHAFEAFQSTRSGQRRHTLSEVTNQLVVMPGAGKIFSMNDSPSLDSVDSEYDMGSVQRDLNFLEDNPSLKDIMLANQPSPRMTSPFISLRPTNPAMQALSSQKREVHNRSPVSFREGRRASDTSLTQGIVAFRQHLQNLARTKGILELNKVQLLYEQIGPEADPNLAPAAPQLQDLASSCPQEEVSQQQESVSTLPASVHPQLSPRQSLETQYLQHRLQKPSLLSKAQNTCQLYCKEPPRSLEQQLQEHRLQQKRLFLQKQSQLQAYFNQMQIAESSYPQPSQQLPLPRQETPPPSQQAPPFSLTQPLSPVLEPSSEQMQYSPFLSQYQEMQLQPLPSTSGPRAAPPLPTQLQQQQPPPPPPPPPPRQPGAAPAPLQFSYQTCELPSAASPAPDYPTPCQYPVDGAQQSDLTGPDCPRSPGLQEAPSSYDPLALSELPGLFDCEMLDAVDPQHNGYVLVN

Row | SMILES | pIC50 (SIK1) | pIC50 (SIK2) | pIC50 (SIK3)
1 | COc1cc(-c2cnc3cc(OC[C@H]4CNCC[C@@H]4O)ccn23)cc(OC(F)F)c1C(=O)NC1CC1 (racemic) [Cpd 373, N-cyclopropyl-2-(difluoromethoxy)-4-[7-[[(3R,4S)-4-hydroxy-3-piperidyl]methoxy]imidazo [1,2-a]pyridin-3-yl]-6-methoxy-benzamide/ N-cyclopropyl-2-(difluoromethoxy)-4-[7-[[(3S,4R)-4-hydroxy-3-piperidyl]methoxy]imidazo [1,2-a]pyridin-3-yl]-6-methoxy-benzamide mixture] | 7.00 to 8.00 | 8.00 to 11.00 | 8.00 to 11.00
2 | COc1cc(-c2cnc3cc(OCCCN4CCCCC4)ccn23)cc(OC(F)F)c1C(=O)N[C@H]1CC[C@H]1O (racemic) [compound 353, 2-(difluoromethoxy)-6-methoxy-4-[7-[3-(1-piperidyl)propoxy]imidazo [1,2-a]pyridin-3-yl]-N-[(1S,2R)-2-hydroxycyclobutyl] benzamide/2-(difluoromethoxy)-N-[(1R,2S)-2-hydroxycyclobutyl]-6-methoxy-4-[7-[3-(1-piperidyl)propoxy]imidazo[1,2-a]pyridin-3-yl]benzamide mixture] | 6.30 to 7.00 | 8.00 to 11.00 | 7.00 to 8.00
3 | COc1cc(-c2cnc3cc(OCCCN4CCCCC4)ccn23)cc(OC(F)F)c1C(=O)N[C@@H]1CC[C@H]1O (racemic) [compound 359, 2-(difluoromethoxy)-N-[(1R,2R)-2-hydroxycyclobutyl]-6-methoxy-4-[7-[3-(1-piperidyl)propoxy]imidazo[1,2-a]pyridin-3-yl]benzamide/2-(difluoromethoxy)-N-[(1S,2S)-2-hydroxycyclobutyl]-6-methoxy-4-[7-[3-(1-piperidyl)propoxy]imidazo[1,2-a]pyridin-3-yl]benzamide mixture] | 6.30 to 7.00 | 8.00 to 11.00 | 7.00 to 8.00
4 | COc1cc(-c2cnc3cc(OC4CCOCC4)ccn23)cc(OC)c1C(=O)NCC(F)(F)F [Cpd 4, 2,6-dimethoxy-4-(7-tetrahydropyran-4-yloxyimidazo[1,2-a]pyridin-3-yl)-N-(2,2,2-trifluoroethyl) benzamide] | < 6.30 | 6.30 to 7.00 | 7.00 to 8.00
5 | COc1cc(-c2cnc3cc(OC4CCCN(C)C4)ccn23)cc(OC)c1C(=O)NCC(F)(F)F (stereo not drawn) [Cpd 5, 2,6-dimethoxy-4-[7-[(1-methyl-3-piperidyl)oxy]imidazo[1,2-a]pyridin-3-yl]-N-(2,2,2-trifluoroethyl)benzamide] | < 6.30 | 6.30 to 7.00 | 7.00 to 8.00
6 | CCOCCOc1cc(-c2cnc3cc(OCCN(C)C)ccn23)cc(OC)c1C(=O)NC1CC1 [Cpd 56, N-cyclopropyl-4-[7-[2-(dimethylamino)ethoxy]imidazo [1,2-a]pyridin-3-yl]-2-(2-ethoxyethoxy)-6-methoxy-benzamide] | < 6.30 | 6.30 to 7.00 | 6.30 to 7.00
7 | COc1cc(-c2cnc3cc(OCC4COCCN4)ccn23)cc(OC(F)F)c1C(=O)NC1CC1 (stereo not drawn) [Cpd 113, N-cyclopropyl-2-(difluoromethoxy)-6-methoxy-4-[7-(morpholin-3-ylmethoxy)imidazo[1,2-a]pyridin-3-yl]benzamide] | 7.00 to 8.00 | 8.00 to 11.00 | 8.00 to 11.00
8 | COc1cc(-c2cnc3cc(OCC4CCCCN4S(C)(=O)=O)ccn23)cc(OC(F)F)c1C(=O)NC1CC1 (stereo not drawn) [Cpd 129, N-cyclopropyl-2-(difluoromethoxy)-6-methoxy-4-[7-[(1-methylsulfonyl-2-piperidyl)methoxy]imidazo[1,2-a]pyridin-3-yl]benzamide] | 8.00 to 11.00 | 8.00 to 11.00 | 8.00 to 11.00
9 | COC(=O)N1CCCCC1COc1ccn2c(-c3cc(OC)c(C(=O)NC4CC4)c(OC(F)F)c3)cnc2c1 (stereo not drawn) [Cpd 130, methyl 2-[[3-[4-(cyclopropylcarbamoyl)-3-(difluoromethoxy)-5-methoxy-phenyl]imidazo[1,2-a]pyridin-7-yl]oxymethyl]piperidine-1-carboxylate] | 8.00 to 11.00 | 8.00 to 11.00 | 8.00 to 11.00
10 | COc1cc(-c2cnc3cc(OCC4CCCCN4C(C)=O)ccn23)cc(OC(F)F)c1C(=O)NC1CC1 (stereo not drawn) [Cpd 141, 4-[7-[(1-acetyl-2-piperidyl)methoxy]imidazo [1,2-a]pyridin-3-yl]-N-cyclopropyl-2-(difluoromethoxy)-6-methoxy-benzamide] | 8.00 to 11.00 | 8.00 to 11.00 | 8.00 to 11.00
11 | COc1cc(-c2cnc3cc(OCC4CCCN4)ccn23)cc(OC(F)F)c1C(=O)NC1CC1 (stereo not drawn) [Cpd 154, N-cyclopropyl-2-(difluoromethoxy)-6-methoxy-4-[7-(pyrrolidin-2-ylmethoxy)imidazo[1,2-a]pyridin-3-yl]benzamide] | 7.00 to 8.00 | 8.00 to 11.00 | 8.00 to 11.00
12 | COc1cc(-c2cnc3cc(OCCN4CCC(F)(F)CC4)ccn23)cc(OC(F)F)c1C(=O)NC1CC1 [Cpd 181, N-cyclopropyl-2-(difluoromethoxy)-4-[7-[2-(4,4-difluoro-1-piperidyl)ethoxy]imidazo [1,2-a]pyridin-3-yl]-6-methoxy-benzamide] | 7.00 to 8.00 | 8.00 to 11.00 | 8.00 to 11.00
13 | COc1cc(-c2cnc3cc(OCC4CCCCN4CC(F)(F)F)ccn23)cc(OC(F)F)c1C(=O)NC1CC1 (stereo not drawn) [Cpd 182, N-cyclopropyl-2-(difluoromethoxy)-6-methoxy-4-[7-[[1-(2,2,2-trifluoroethyl)-2-piperidyl]methoxy]imidazo[1,2-a]pyridin-3-yl]benzamide] | 7.00 to 8.00 | 7.00 to 8.00 | 8.00 to 11.00
14 | COc1cc(-c2cnc3cc(OCC4(F)CN(C(=O)OC(C)(C)C)C4)ccn23)cc(OC(F)F)c1C(=O)NC1CC1 [Cpd 187, tert-butyl 3-[[3-[4-(cyclopropylcarbamoyl)-3-(difluoromethoxy)-5-methoxy-phenyl]imidazo[1,2-a]pyridin-7-yl]oxymethyl]-3-fluoro-azetidine-1-carboxylate] | 7.00 to 8.00 | 8.00 to 11.00 | 8.00 to 11.00

Further lines, results first:

Row | pIC50 (SIK1) | pIC50 (SIK2) | pIC50 (SIK3) | SMILES
15 | 8.00 to 11.00 | 8.00 to 11.00 | 8.00 to 11.00 | COc1cc(-c2cnc3cc(OCC4CCC4)ccn23)cc(OC(F)F)c1C(=O)NC1CC1 [Cpd 71, 4-[7-(cyclobutylmethoxy)imidazo[1,2-a]pyridin-3-yl]-N-cyclopropyl-2-(difluoromethoxy)-6-methoxy-benzamide]
16 | 7.00 to 8.00 | 8.00 to 11.00 | 8.00 to 11.00 | COc1cc(-c2cnc3cc(OCc4cn(C)cn4)ccn23)cc(OC(F)F)c1C(=O)NC1CC1 [Cpd 101, N-cyclopropyl-2-(difluoromethoxy)-6-methoxy-4-[7-[(1-methylimidazol-4-yl)methoxy]imidazo[1,2-a]pyridin-3-yl]benzamide]
17 | 7.00 to 8.00 | 8.00 to 11.00 | 8.00 to 11.00 | COc1cc(-c2cnc3cc(OCC4CCN4)ccn23)cc(OC(F)F)c1C(=O)NC1CC1 (stereo not drawn) [Cpd 109, 4-[7-(azetidin-2-ylmethoxy)imidazo[1,2-a]pyridin-3-yl]-N-cyclopropyl-2-(difluoromethoxy)-6-methoxy-benzamide]
18 | 6.30 to 7.00 | 8.00 to 11.00 | 8.00 to 11.00 | CNC(C)(C)COc1ccn2c(-c3cc(OC)c(C(=O)NC4CC4)c(OC(F)F)c3)cnc2c1 [Cpd 153, N-cyclopropyl-2-(difluoromethoxy)-6-methoxy-4-[7-[2-methyl-2-(methylamino)propoxy]imidazo[1,2-a]pyridin-3-yl]benzamide]
19 | 6.30 to 7.00 | 7.00 to 8.00 | 8.00 to 11.00 | COc1cc(-c2cnc3cc(OCc4ccccc4)ncn23)cc(OC(F)F)c1C(=O)NC1CC1 [Cpd 159, 4-(7-benzyloxyimidazo[1,2-c]pyrimidin-3-yl)-N-cyclopropyl-2-(difluoromethoxy)-6-methoxy-benzamide]
20 | 6.30 to 7.00 | 8.00 to 11.00 | 8.00 to 11.00 | CCn1ccnc1COc1ccn2c(-c3cc(OC)c(C(=O)NC4CC4)c(OC(F)F)c3)cnc2c1 [Cpd 173, N-cyclopropyl-2-(difluoromethoxy)-4-[7-[(1-ethylimidazol-2-yl)methoxy]imidazo[1,2-a]pyridin-3-yl]-6-methoxy-benzamide]
21 | 7.00 to 8.00 | 8.00 to 11.00 | 8.00 to 11.00 | COc1cc(-c2cnc3cc(OCCN4CC(C)OC(C)C4)ccn23)cc(OC(F)F)c1C(=O)NC1CC1 (stereo not drawn) [Cpd 177, N-cyclopropyl-2-(difluoromethoxy)-4-[7-[2-(2,6-dimethylmorpholin-4-yl)ethoxy]imidazo [1,2-a]pyridin-3-yl]-6-methoxy-benzamide]
22 | 8.00 to 11.00 | 8.00 to 11.00 | 8.00 to 11.00 | COc1cc(-c2cnc3cc(OCCN(C)c4ccccn4)ccn23)cc(OC(F)F)c1C(=O)NC1CC1 [Cpd 183, N-cyclopropyl-2-(difluoromethoxy)-6-methoxy-4-[7-[2-[methyl(2-pyridyl)amino]ethoxy]imidazo[1,2-a]pyridin-3-yl]benzamide]
23 | 8.00 to 11.00 | 8.00 to 11.00 | 8.00 to 11.00 | COc1cc(-c2cnc3cc(OCCN(C)c4ccccc4)ccn23)cc(OC(F)F)c1C(=O)NC1CC1 [Cpd 184, N-cyclopropyl-2-(difluoromethoxy)-6-methoxy-4-[7-[2-(N-methylanilino)ethoxy]imidazo[1,2-a]pyridin-3-yl]benzamide]
